In ChEMBL document CHEMBL3046061, “Quinolinedione nucleus as a novel scaffold for A1 and A2A adenosine receptor antagonists” (Med Chem Res, 2008):

system: cAMP phosphodiesterase 3 (Cavia porcellus); test: Inhibition of Cavia porcellus (guinea pig) PDE3 isolated from heart using [3H]cAMP as substrate at 1 uM by two-step method

Row | Structure (SMILES) | inhibition [%]
1 | CC(=O)c1cc(C(=O)c2ccccc2)c(=O)[nH]c1C | 0
2 | CC(=O)c1cc(C(=O)C(C)(C)C)c(=O)[nH]c1C | 0
3 | O=C(c1ccccc1)c1cc(S(=O)(=O)c2ccccc2)c(=O)[nH]c1-c1ccccc1 | 0
4 | O=C1CCCc2[nH]c(=O)c(S(=O)(=O)c3ccccc3)cc21 | 0
5 | O=C1CCCc2[nH]c(=O)c(C(=O)c3ccccc3)cc21 | 0
6 | CC(=O)c1cc(S(=O)(=O)c2ccccc2)c(=O)[nH]c1C | 0

molecular target: Adenosine receptor A2a (Homo sapiens, UniProt P29274); test: Displacement of [3H]CGS21680 from Homo sapiens (human) adenosine A2A receptor expressed in CHO cells at 10 uM; assay type: cell-based
Sequence (P29274 whole entry): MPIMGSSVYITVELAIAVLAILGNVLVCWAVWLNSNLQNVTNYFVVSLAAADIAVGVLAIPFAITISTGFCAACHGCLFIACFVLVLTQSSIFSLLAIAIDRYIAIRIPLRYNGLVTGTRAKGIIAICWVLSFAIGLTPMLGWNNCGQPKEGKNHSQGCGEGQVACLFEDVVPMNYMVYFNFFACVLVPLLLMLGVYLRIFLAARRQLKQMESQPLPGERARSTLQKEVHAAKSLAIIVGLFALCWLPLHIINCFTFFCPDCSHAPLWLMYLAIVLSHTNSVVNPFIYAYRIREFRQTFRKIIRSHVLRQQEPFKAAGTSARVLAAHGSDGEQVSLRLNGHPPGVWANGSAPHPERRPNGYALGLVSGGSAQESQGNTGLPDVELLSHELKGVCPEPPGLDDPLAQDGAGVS

Row | Structure (SMILES) | inhibition [%]
7 | O=C(c1ccccc1)c1cc(S(=O)(=O)c2ccccc2)c(=O)[nH]c1-c1ccccc1 | 11

system: cAMP phosphodiesterase 3 (Cavia porcellus); test: Inhibition of Cavia porcellus (guinea pig) PDE3 isolated from heart using [3H]cAMP as substrate at 50 uM by two-step method

Row | Structure (SMILES) | inhibition [%]
8 | CC(=O)c1cc(C(=O)c2ccccc2)c(=O)[nH]c1C | 4.35
9 | CC(=O)c1cc(C(=O)C(C)(C)C)c(=O)[nH]c1C | 2.15
10 | O=C(c1ccccc1)c1cc(S(=O)(=O)c2ccccc2)c(=O)[nH]c1-c1ccccc1 | 3.5
11 | O=C1CCCc2[nH]c(=O)c(S(=O)(=O)c3ccccc3)cc21 | 4.7
12 | O=C1CCCc2[nH]c(=O)c(C(=O)c3ccccc3)cc21 | 4.3
13 | CC(=O)c1cc(S(=O)(=O)c2ccccc2)c(=O)[nH]c1C | 3.98

molecular target: T1, Adenosine receptor A1 (Bos taurus) (UniProt P28190); test: Displacement of [3H]DPCPX from adenosine A1 receptor in Bos taurus (bovine) cortical membrane at 10 uM
T1 sequence (whole entry): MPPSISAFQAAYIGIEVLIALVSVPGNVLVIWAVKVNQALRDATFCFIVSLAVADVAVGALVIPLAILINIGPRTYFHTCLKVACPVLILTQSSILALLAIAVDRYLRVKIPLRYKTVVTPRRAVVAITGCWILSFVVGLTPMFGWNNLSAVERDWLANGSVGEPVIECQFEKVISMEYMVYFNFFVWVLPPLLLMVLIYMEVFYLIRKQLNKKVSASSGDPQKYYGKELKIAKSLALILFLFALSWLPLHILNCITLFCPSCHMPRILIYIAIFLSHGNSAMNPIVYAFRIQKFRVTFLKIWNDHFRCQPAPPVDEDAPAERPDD

Row | Structure (SMILES) | inhibition [%]
14 | CC(=O)c1cc(C(=O)c2ccccc2)c(=O)[nH]c1C | 0
15 | CC(=O)c1cc(C(=O)C(C)(C)C)c(=O)[nH]c1C | 0
16 | O=C(c1ccccc1)c1cc(S(=O)(=O)c2ccccc2)c(=O)[nH]c1-c1ccccc1 | 8
17 | O=C1CCCc2[nH]c(=O)c(S(=O)(=O)c3ccccc3)cc21 | 10
18 | O=C1CCCc2[nH]c(=O)c(C(=O)c3ccccc3)cc21 | 6
19 | CC(=O)c1cc(S(=O)(=O)c2ccccc2)c(=O)[nH]c1C | 0

molecular target: T2, Adenosine receptor A1 (Homo sapiens) (UniProt P30542); test: Displacement of [3H]DPCPX from Homo sapiens (human) adenosine A1 receptor expressed in CHO cells at 10 uM; assay type: cell-based
T2 sequence (whole entry): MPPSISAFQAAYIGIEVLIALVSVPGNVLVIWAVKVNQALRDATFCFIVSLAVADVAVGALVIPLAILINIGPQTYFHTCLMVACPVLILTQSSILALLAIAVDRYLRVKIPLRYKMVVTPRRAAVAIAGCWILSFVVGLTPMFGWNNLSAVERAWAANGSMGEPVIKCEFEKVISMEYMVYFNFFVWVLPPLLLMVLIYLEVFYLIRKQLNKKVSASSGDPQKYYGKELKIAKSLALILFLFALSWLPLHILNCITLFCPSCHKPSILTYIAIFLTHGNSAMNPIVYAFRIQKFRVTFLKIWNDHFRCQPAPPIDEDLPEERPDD

Row | Structure (SMILES) | inhibition [%]
20 | O=C(c1ccccc1)c1cc(S(=O)(=O)c2ccccc2)c(=O)[nH]c1-c1ccccc1 | 1
21 | O=C1CCCc2[nH]c(=O)c(S(=O)(=O)c3ccccc3)cc21 | 36

molecular target: T3, Adenosine receptor A3 (Homo sapiens) (UniProt P0DMS8); test: Displacement of [125I]AB-MECA from Homo sapiens (human) adenosine A3 receptor expressed in CHO cells at 10 uM; assay type: cell-based
T3 sequence (whole entry): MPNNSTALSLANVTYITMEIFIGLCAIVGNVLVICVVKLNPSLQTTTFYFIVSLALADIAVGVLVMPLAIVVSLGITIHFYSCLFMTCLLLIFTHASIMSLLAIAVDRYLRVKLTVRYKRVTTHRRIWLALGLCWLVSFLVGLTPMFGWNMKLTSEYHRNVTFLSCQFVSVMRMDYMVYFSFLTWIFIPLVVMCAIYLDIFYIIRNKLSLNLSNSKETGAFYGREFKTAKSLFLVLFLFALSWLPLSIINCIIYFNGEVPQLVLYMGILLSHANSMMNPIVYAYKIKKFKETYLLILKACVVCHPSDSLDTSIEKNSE

Row | Structure (SMILES) | inhibition [%]
22 | CC(=O)c1cc(C(=O)c2ccccc2)c(=O)[nH]c1C | 0
23 | CC(=O)c1cc(C(=O)C(C)(C)C)c(=O)[nH]c1C | 13
24 | O=C(c1ccccc1)c1cc(S(=O)(=O)c2ccccc2)c(=O)[nH]c1-c1ccccc1 | 0
25 | O=C1CCCc2[nH]c(=O)c(S(=O)(=O)c3ccccc3)cc21 | 0
26 | O=C1CCCc2[nH]c(=O)c(C(=O)c3ccccc3)cc21 | 0
27 | CC(=O)c1cc(S(=O)(=O)c2ccccc2)c(=O)[nH]c1C | 0

molecular target: Uncharacterized protein (Bos taurus) (UniProt E1BKU0); test: Displacement of [3H]CGS21680 from adenosine A2A receptor in Bos taurus (bovine) cortical membrane at 10 uM
Sequence (E1BKU0 as listed by the source): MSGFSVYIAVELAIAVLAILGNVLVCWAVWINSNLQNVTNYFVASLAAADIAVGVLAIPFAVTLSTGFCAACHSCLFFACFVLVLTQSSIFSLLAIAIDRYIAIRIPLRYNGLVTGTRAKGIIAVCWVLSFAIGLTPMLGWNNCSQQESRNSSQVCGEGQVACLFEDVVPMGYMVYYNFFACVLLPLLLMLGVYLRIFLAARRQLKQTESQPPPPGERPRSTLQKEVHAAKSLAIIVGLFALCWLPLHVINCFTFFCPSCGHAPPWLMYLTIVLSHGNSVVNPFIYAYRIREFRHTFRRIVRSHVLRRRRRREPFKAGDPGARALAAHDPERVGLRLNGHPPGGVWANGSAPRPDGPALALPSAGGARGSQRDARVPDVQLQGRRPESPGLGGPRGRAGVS

Row | Structure (SMILES) | inhibition [%]
28 | CC(=O)c1cc(C(=O)c2ccccc2)c(=O)[nH]c1C | 0
29 | CC(=O)c1cc(C(=O)C(C)(C)C)c(=O)[nH]c1C | 11
30 | O=C(c1ccccc1)c1cc(S(=O)(=O)c2ccccc2)c(=O)[nH]c1-c1ccccc1 | 8
31 | O=C1CCCc2[nH]c(=O)c(S(=O)(=O)c3ccccc3)cc21 | 2
32 | O=C1CCCc2[nH]c(=O)c(C(=O)c3ccccc3)cc21 | 4
33 | CC(=O)c1cc(S(=O)(=O)c2ccccc2)c(=O)[nH]c1C | 0

system: cAMP phosphodiesterase 3 (Cavia porcellus); test: Inhibition of Cavia porcellus (guinea pig) PDE3 isolated from heart using [3H]cAMP as substrate at 100 uM by two-step method

Row | Structure (SMILES) | inhibition [%]
34 | CC(=O)c1cc(C(=O)c2ccccc2)c(=O)[nH]c1C | 8.9
35 | CC(=O)c1cc(C(=O)C(C)(C)C)c(=O)[nH]c1C | 8.23
36 | O=C(c1ccccc1)c1cc(S(=O)(=O)c2ccccc2)c(=O)[nH]c1-c1ccccc1 | 7.53
37 | O=C1CCCc2[nH]c(=O)c(S(=O)(=O)c3ccccc3)cc21 | 5.7
38 | O=C1CCCc2[nH]c(=O)c(C(=O)c3ccccc3)cc21 | 6
39 | CC(=O)c1cc(S(=O)(=O)c2ccccc2)c(=O)[nH]c1C | 8.72

system: cAMP phosphodiesterase 3 (Cavia porcellus); test: Inhibition of Cavia porcellus (guinea pig) PDE3 isolated from heart using [3H]cAMP as substrate at 10 uM by two-step method

Row | Structure (SMILES) | inhibition [%]
40 | CC(=O)c1cc(C(=O)c2ccccc2)c(=O)[nH]c1C | 2
41 | CC(=O)c1cc(C(=O)C(C)(C)C)c(=O)[nH]c1C | 1.15
42 | O=C(c1ccccc1)c1cc(S(=O)(=O)c2ccccc2)c(=O)[nH]c1-c1ccccc1 | 0
43 | O=C1CCCc2[nH]c(=O)c(S(=O)(=O)c3ccccc3)cc21 | 0
44 | O=C1CCCc2[nH]c(=O)c(C(=O)c3ccccc3)cc21 | 0
45 | CC(=O)c1cc(S(=O)(=O)c2ccccc2)c(=O)[nH]c1C | 1.03
